Results: ChEMBL document CHEMBL3301562, “MMV Box screening against Plasmodium falciparum protein kinases and aminoacyl tRNA synthetases”
pIC50: −log10 of the molar value.

Tests used:
Format in all cases: functional
[1] = target: T1, Cdk-related protein kinase 6 (Plasmodium falciparum, UniProt O77239); experiment: Final concentrations were 1.5 uM ATP, 5 mM MnCl2, and 15 ug/ml PK6 in a buffer of 100 mM Tris-HCl (pH 7.5). 50 ug/mL MBP was provided as the substrate; 10 uM staurosporine was used as a control inhibitor. Incubation time was 3 hours and 40 minutes.The catalytic activity of each kinase was considered proportional to ATP consumed, as determined from measurements of residual [ATP] with the luciferase-based reagent Kinase-Glo (Promega) following incubation. Luminescence (proportional to residual [ATP]) was measured on the plate readers FLx800 (BioTek Instruments, Winooski, VT, USA) and MicroBeta2.
T1 sequence (O77239 whole entry): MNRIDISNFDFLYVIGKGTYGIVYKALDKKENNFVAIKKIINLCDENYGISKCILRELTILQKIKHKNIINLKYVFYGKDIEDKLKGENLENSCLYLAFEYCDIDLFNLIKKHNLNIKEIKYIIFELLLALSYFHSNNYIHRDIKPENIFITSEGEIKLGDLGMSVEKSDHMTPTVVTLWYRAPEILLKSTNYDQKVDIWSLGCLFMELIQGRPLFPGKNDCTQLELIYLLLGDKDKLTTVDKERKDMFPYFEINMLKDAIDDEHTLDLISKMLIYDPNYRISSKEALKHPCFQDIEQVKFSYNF

[2] = target: T2, Putative uncharacterized protein pk7 (Plasmodium falciparum, UniProt O96214); experiment: Final concentrations were 1 uM ATP, 2 mM DTT, 20 mM MgCl2, 2 mM MnCl2, 0.01% BSA, and 6 ug/ml PK7, in a buffer of 20 mM Tris-HCl (pH 7.5). The enzyme itself was the only substrate present (since autophosphorylation occurs); 100 uM 1NA-PP1 was used as a control inhibitor. Incubation time was 3 hours.
T2 sequence (O96214 whole entry): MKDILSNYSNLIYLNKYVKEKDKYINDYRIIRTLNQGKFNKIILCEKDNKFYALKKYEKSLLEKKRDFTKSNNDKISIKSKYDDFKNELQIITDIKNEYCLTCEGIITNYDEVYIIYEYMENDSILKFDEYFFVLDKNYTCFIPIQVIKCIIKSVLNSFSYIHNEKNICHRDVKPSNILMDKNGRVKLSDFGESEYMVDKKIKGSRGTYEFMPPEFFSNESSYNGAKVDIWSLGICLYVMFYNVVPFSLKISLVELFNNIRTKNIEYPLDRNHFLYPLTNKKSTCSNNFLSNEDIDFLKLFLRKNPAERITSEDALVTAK

[3] = target: T3, Mitogen-activated protein kinase (Plasmodium falciparum, UniProt Q25917); experiment: Final concentrations were 1 uM ATP, 0.5 mM DTT, 1 mM MgCl2, 0.5 mg/mL BSA, and 10 ug/ml MAP2 in a buffer of 50 mM HEPES (pH 7.0). 0.5 mg/mL histone III-S served as the substrate (13); 100 uM AMP-PNP, an ATP analog, was used as a control inhibitor. Incubation time was 4 hours.
T3 sequence (Q25917 whole entry): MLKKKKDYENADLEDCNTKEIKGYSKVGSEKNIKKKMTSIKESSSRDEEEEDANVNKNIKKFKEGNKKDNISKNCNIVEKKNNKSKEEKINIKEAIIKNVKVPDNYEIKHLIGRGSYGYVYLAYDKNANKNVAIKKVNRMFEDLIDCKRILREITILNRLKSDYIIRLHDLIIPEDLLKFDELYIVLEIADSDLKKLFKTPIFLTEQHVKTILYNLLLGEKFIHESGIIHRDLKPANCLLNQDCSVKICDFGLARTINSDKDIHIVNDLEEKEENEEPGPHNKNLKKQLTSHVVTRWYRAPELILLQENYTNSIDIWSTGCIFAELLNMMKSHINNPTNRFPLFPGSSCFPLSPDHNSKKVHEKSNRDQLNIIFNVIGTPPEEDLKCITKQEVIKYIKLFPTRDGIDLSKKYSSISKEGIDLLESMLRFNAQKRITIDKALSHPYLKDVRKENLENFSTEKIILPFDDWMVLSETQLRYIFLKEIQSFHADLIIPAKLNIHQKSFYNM

[4] = target: Calcium-dependent protein kinase 1 (Plasmodium falciparum, UniProt P62344); experiment: MMV: CDPK1 Protein kinase inhibition assay using recombinant PfCDPK1, syntide 2 peptide substrate, ATP and KinaseGlo to measure % inhibition at 1 uM MMV box compound.
[5] = target: T4, Calcium-dependent protein kinase 4 (Plasmodium falciparum (isolate 3D7), UniProt Q8IBS5); experiment: MMV: CDPK4 Protein kinase inhibition assay using recombinant PfCDPK4, syntide2 peptide substrate, ATP and KinaseGlo to measure % inhibition at 1 uM MMV box compound.
T4 sequence (Q8IBS5 whole entry): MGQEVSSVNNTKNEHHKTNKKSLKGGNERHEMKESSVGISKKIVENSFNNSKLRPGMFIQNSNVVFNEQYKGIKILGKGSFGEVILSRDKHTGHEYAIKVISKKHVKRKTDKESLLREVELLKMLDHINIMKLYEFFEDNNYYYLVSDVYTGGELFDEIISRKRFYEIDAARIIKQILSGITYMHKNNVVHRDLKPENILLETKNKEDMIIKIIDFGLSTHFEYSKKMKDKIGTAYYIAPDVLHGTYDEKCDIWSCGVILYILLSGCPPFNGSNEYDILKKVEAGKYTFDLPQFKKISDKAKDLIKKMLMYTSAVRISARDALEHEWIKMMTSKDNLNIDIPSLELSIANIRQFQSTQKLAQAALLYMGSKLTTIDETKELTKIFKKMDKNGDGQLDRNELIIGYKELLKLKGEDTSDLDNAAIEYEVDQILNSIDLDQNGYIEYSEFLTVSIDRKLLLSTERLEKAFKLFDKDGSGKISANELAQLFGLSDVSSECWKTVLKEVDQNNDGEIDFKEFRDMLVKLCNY

Proline--tRNA ligase = target: T5, Proline--tRNA ligase (Plasmodium falciparum (isolate 3D7), UniProt Q8I5R7); experiment: MMV: ProRS recombinant Plasmodium falciparum Prolyl-tRNA-synthetase, assay with yeast tRNA, ATP, and proline and 3 uM MMV malaria box compound, assay read out with kinase glo as % inhibition.
T5 sequence (Q8I5R7 whole entry): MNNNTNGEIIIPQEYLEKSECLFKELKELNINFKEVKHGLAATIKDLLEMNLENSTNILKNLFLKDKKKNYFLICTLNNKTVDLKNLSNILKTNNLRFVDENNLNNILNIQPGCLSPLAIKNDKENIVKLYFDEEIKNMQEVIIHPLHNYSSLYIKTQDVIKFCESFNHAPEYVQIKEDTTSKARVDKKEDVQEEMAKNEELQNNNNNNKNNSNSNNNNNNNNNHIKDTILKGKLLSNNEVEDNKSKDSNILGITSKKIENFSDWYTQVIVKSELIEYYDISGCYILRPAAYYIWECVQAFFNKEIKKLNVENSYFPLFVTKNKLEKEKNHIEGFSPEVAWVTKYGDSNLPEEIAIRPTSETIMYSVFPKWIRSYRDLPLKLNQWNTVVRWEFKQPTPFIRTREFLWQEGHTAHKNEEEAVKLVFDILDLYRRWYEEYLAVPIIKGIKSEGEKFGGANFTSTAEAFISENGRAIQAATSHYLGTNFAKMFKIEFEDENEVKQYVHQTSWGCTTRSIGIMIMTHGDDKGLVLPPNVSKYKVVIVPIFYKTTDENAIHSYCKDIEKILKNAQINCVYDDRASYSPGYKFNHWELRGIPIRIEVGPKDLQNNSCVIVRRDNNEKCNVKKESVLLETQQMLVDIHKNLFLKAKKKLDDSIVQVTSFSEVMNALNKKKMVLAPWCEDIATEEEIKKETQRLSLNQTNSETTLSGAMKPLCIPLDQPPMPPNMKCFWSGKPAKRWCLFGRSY

Lysine--tRNA ligase = Lysine--tRNA ligase (Plasmodium falciparum (isolate 3D7), UniProt Q8IDJ8); experiment: MMV: KRS recombinant Plasmodium falciparum Lysyl-tRNA-synthetase, assay with yeast tRNA, ATP, and lysine and 3 uM MMV malaria box compound, assay read out with kinase glo as % inhibition.
Sequence of Lysine--tRNA ligase (Q8IDJ8 whole entry): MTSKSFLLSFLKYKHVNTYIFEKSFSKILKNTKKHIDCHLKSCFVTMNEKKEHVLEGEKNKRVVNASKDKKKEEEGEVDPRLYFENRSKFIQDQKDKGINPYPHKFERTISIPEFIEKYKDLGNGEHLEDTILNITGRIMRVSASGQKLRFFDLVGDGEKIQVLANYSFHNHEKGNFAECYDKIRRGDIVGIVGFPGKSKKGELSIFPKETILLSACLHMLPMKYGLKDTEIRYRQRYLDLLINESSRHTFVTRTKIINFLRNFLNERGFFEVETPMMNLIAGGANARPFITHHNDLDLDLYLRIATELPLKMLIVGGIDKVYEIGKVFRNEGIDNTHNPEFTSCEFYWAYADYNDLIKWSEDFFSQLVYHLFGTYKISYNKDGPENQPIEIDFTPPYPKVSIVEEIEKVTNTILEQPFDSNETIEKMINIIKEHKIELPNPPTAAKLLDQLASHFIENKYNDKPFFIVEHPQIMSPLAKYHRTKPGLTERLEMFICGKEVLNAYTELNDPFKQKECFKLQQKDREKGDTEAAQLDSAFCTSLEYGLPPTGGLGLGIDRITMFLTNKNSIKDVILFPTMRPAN

Sequence of Calcium-dependent protein kinase 1 (P62344 whole entry): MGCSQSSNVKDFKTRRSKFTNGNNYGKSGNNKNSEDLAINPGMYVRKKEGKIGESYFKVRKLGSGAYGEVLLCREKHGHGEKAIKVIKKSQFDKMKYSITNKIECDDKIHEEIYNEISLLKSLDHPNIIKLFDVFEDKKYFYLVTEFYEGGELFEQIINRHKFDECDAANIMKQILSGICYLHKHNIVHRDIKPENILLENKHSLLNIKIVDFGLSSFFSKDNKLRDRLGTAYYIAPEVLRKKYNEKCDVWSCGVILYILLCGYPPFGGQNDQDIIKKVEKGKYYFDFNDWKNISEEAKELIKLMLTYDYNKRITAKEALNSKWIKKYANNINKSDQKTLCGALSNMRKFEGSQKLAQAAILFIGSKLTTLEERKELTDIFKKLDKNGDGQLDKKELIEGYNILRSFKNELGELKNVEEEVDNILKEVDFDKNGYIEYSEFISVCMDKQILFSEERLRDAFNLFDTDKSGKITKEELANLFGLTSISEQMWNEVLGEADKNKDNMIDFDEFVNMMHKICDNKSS

SMILES | pIC50 [1] | pIC50 [2] | pIC50 [3] | pIC50 [4] | pIC50 [5] | pIC50 (Proline--tRNA ligase) | pIC50 (Lysine--tRNA ligase)
Cc1cc(C)cc(Nc2cc(C)nc3nc(C(F)(F)F)nn23)c1 | < 6.00 | < 6.00 | < 6.00 | < 6.00 | < 6.00 | < 5.60 | < 5.60
O=C(NCC(c1ccsc1)N1CCCCCC1)c1ccc(C(F)(F)F)cc1 (stereo not given) | < 6.00 | < 6.00 | < 6.00 | < 6.00 | < 6.00 | < 5.60 | < 5.60
Cc1ccc(-c2cc3c(SCC(=O)Nc4cc(C(F)(F)F)ccc4Cl)nccn3n2)cc1 | < 6.00 | < 6.00 | < 6.00 | < 6.00 | < 6.00 | < 5.60 | < 5.60
CCCCCC(=O)N1c2ccccc2N=C2CC(c3ccc(OC)c(OC)c3)CC(O)=C2C1c1ccc(C(F)(F)F)cc1 (stereo not given) | < 6.00 | < 6.00 | < 6.00 | < 6.00 | < 6.00 | < 5.60 | < 5.60
Cc1cc(NCCN2CCCCC2)c2ccc3ccccc3c2n1 | < 6.00 | < 6.00 | < 6.00 | < 6.00 | < 6.00 | < 5.60 | < 5.60
Cc1ccc(N2C(=O)C3C(C2=O)C2(c4ccccc4)C(=O)C3(c3ccccc3)C(c3ccccc3)=C2c2ccccc2)cc1 (stereo not given) | < 6.00 | < 6.00 | < 6.00 | < 6.00 | < 6.00 | < 5.60 | < 5.60
CCc1c(C)c(=N)c2ccccc2n1C | < 6.00 | < 6.00 | < 6.00 | < 6.00 | < 6.00 | < 5.60 | < 5.60
CCOC(=O)C1=C(c2ccccc2)N=c2sc(=Cc3cc(C)n(-c4ccc(F)cc4)c3C)c(=O)n2C1c1cccc(OC)c1OC (stereo not given) | < 6.00 | < 6.00 | < 6.00 | < 6.00 | < 6.00 | < 5.60 | < 5.60
CCC1(C)CC(CCNCc2ccccc2O)(c2ccc(C)cc2)CCO1 (stereo not given) | < 6.00 | < 6.00 | < 6.00 | < 6.00 | < 6.00 | < 5.60 | < 5.60
Cc1cc(Nc2ccc(C)c(Cl)c2)n2nc(C(F)(F)F)nc2n1 | < 6.00 | < 6.00 | < 6.00 | < 6.00 | < 6.00 | < 5.60 | < 5.60
Fc1ccc2[nH]c3c(NCCCN4CCOCC4)ncnc3c2c1 | < 6.00 | < 6.00 | < 6.00 | < 6.00 | < 6.00 | < 5.60 | < 5.60
Cc1cccc(Nc2nc(N)c3ccccc3n2)c1 | < 6.00 | < 6.00 | < 6.00 | < 6.00 | < 6.00 | < 5.60 | < 5.60
CCn1c(CN2CCN(Cc3ccccc3)CC2)nc2cc(NC(=O)c3cccs3)ccc21 | < 6.00 | < 6.00 | < 6.00 | < 6.00 | < 6.00 | < 5.60 | < 5.60
COc1cc(OC)c(N(C)C(=O)c2cc3c(s2)-c2ccccc2S(=O)(=O)C3)cc1Cl | < 6.00 | < 6.00 | < 6.00 | < 6.00 | < 6.00 | < 5.60 | < 5.60
COc1ccccc1CNC(=O)CCn1c(=O)[nH]c2ccsc2c1=O | < 6.00 | < 6.00 | < 6.00 | < 6.00 | < 6.00 | < 5.60 | < 5.60
COc1ccc(Br)cc1C1Nc2ccc3ccccc3c2C2=C1C(=O)CC(c1ccccc1)C2 (stereo not given) | < 6.00 | < 6.00 | < 6.00 | < 6.00 | < 6.00 | < 5.60 | < 5.60
Cc1cc(C=C2SC(=Nc3ccccc3)N(C3CCCC3)C2=O)c(C)n1-c1ccc(Cl)cc1 | < 6.00 | < 6.00 | < 6.00 | < 6.00 | < 6.00 | < 5.60 | < 5.60
CCc1ccc(Nc2cc(C)c3ccc(O)cc3n2)cc1 | < 6.00 | < 6.00 | < 6.00 | < 6.00 | < 6.00 | < 5.60 | < 5.60
CCCc1c(CC)c(=N)c2ccccc2n1C | < 6.00 | < 6.00 | < 6.00 | < 6.00 | < 6.00 | < 5.60 | < 5.60
CCOC(=O)c1cnc2c(C)cc(C)cc2c1Nc1ccc(OC)c(OC)c1 | < 6.00 | < 6.00 | < 6.00 | < 6.00 | < 6.00 | < 5.60 | < 5.60
